Source: PubChem BioAssay (NCI)
In brackets after ≈: the same amount, converted by molar mass.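 A five-concentration, 48-hour dose response in 96-well plates underlies each endpoint, interpolated linearly between surrounding concentrations. GI50 marks 50% less growth. TGI: concentration producing complete growth inhibition.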

How the values were obtained:
Assay in all cases: NCI tumour cell line growth inhibition, 48 h
A549 NSCLC = test system: A549 NSCLC
COLO 205 colon = test system: COLO 205 colon
SF-295 CNS = test system: SF-295 CNS
NCI-H23 lung = test system: NCI-H23 lung
NCI-H460 lung = test system: NCI-H460 lung
HCT-15 colon = test system: HCT-15 colon
OVCAR-4 ovarian = test system: OVCAR-4 ovarian
U251 CNS = test system: U251 CNS
LOX IMVI melanoma = test system: LOX IMVI melanoma
M14 melanoma = test system: M14 melanoma
NCI-H226 lung = test system: NCI-H226 lung
MOLT-4 leukemia = test system: MOLT-4 leukemia
SNB-75 CNS = test system: SNB-75 CNS
TK-10 renal = test system: TK-10 renal

SMILES	TGI (A549 NSCLC)	TGI (COLO 205 colon)	TGI (SF-295 CNS)	TGI (NCI-H23 lung)	TGI (NCI-H460 lung)	TGI (HCT-15 colon)	TGI (OVCAR-4 ovarian)	TGI (U251 CNS)	TGI (LOX IMVI melanoma)	TGI (M14 melanoma)	TGI (NCI-H226 lung)	TGI (MOLT-4 leukemia)	TGI (SNB-75 CNS)	TGI (TK-10 renal)	GI50 (A549 NSCLC)	GI50 (SF-295 CNS)	GI50 (NCI-H23 lung)	GI50 (HCT-15 colon)	GI50 (TK-10 renal)
ICC1CCCO1 (stereo unspecified)	> 100 µM	> 100 µM	> 100 µM	> 100 µM	> 100 µM	> 100 µM	> 100 µM	> 100 µM	> 100 µM	> 100 µM	> 100 µM	> 100 µM	> 100 µM	> 100 µM	–	–	–	–	–
O=C=C=P(c1ccccc1)(c1ccccc1)c1ccccc1	> 100 µM	75.7 µM	> 100 µM	> 100 µM	> 100 µM	> 100 µM	> 100 µM	> 100 µM	> 100 µM	> 100 µM	> 100 µM	> 100 µM	83.6 µM	–	–	–	–	–	–
CCOP(=O)(C/C=C/Cn1ncc(=O)[nH]c1=O)OCC	> 100 µM	> 100 µM	–	–	> 100 µM	> 100 µM	> 100 µM	> 100 µM	> 100 µM	> 100 µM	> 100 µM	> 100 µM	> 100 µM	> 100 µM	–	–	–	–	–
Cc1nc2nc(C)n(CCN3CCOCC3)c(=O)c2c(-c2cccc([N+](=O)[O-])c2)c1C(=O)CCCCCCCCCCN1CCC(c2ccccc2)(c2ccccc2)CC1	5.24 µg/mL	–	2.65 µg/mL	3.71 µg/mL	–	3.17 µg/mL	–	–	–	–	–	–	–	4.45 µg/mL	2.38 µg/mL (≈ 2.93 µM)	0.78 µg/mL (≈ 0.96 µM)	1.81 µg/mL (≈ 2.22 µM)	1.32 µg/mL (≈ 1.62 µM)	2.41 µg/mL (≈ 2.96 µM)
CC1(C)OCC(CO)(CO)CO1	> 100 µM	> 100 µM	> 100 µM	> 100 µM	> 100 µM	> 100 µM	> 100 µM	> 100 µM	> 100 µM	> 100 µM	> 100 µM	> 100 µM	> 100 µM	> 100 µM	–	–	–	–	–
O=Cc1cn(CCCCCCCCn2cc(C=O)c3ccccc32)c2ccccc12	> 10 µM	> 10 µM	> 10 µM	> 10 µM	> 10 µM	> 10 µM	> 10 µM	> 10 µM	> 10 µM	> 10 µM	> 10 µM	> 10 µM	> 10 µM	> 10 µM	–	–	–	–	–
c1ccc(C2=NN2c2ccccc2)cc1	> 100 µM	> 100 µM	> 100 µM	> 100 µM	> 100 µM	> 100 µM	> 100 µM	> 100 µM	> 100 µM	> 100 µM	> 100 µM	> 100 µM	> 100 µM	> 100 µM	–	–	–	–	–
